How the values were obtained:
[1] = UPLC-MS/MS quantification of berberine and metabolites in plasma; assay type: in vivo, Ross 308 broiler chickens; settings: chickens fed 0.1, 0.5 or 1 g berberine/kg feed for 21 days; LOQ 0.1 ng/mL
Description: (§1) The study was undertaken following the guidelines of the ethics committee of the Faculty of Veterinary Medicine and Bioscience Engineering, Ghent University, in accordance with the EU Directive 2010/63/EU. One-day-old Ross 308 male broilers were obtained from a local hatchery and housed in pens on wood shavings. They were allotted into 4 groups, with three replicate pens per group each housing 8 chickens. The animals were not vaccinated. Water and commercial starter feed (day 1–12, FARM 1 Mash, Country’s Best, Versele Laga, Deinze, Belgium) or grower (day 13–21, FARM 2 mash, Country’s Best, Versele Laga, Deinze, Belgium) were provided ad libitum. The control group received the standard non-supplemented diets, whereas the chickens in other groups were fed the same feed supplemented with 0.1, 0.5 or 1 g berberine/kg feed throughout the whole trial period. At day 21, 4 birds per pen were weighted then euthanized by sodium pentobarbital injection for sampling. Individual jejunal, ileal, caecal and colonic contents were stored at −20°C for microbiota composition analysis (16S rRNA gene sequencing). Additionally, ileal and caecal content samples were collected and stored at −20°C for berberine and berberine-derived metabolite quantification. Duodenal tissue samples were collected and fixed in 4% phosphate buffered formaldehyde for histological analysis. Blood samples were collected in heparin tubes and centrifuged at 524 g for 10 min to recover the plasma fraction, which was further mixed with 17 mg/mL L-ascorbic acid for dihydroberberine stabilization, and stored at −20°C for berberine and berberine-derived metabolite quantification.
(§2) The column temperature was maintained at 25°C. The autosampler temperature was set at 10°C.
A 137.5 µL plasma sample containing 17 mg/mL L-ascorbic acid was used for sample extraction. The ascorbic acid solution was added to prevent oxidation of dihydroberberine to berberine during sample storage ([Feng et al., 2015]). The plasma sample was transferred to an OstroTM 96 well-plate (25 mg) (Waters). Subsequently, 50 µL Milli-Q water and 25 µL of an internal standard solution containing 100 ng/mL of both berberine-d6 and tetrahydropalmatine were added. A 640 µL volume of 1% (v/v) formic acid solution in acetonitrile (1/3 ratio) was added, followed by gentle mixing. Vacuum was applied on the Ostro™ plate for 5 min and the eluate was collected in a 2 mL square 96-well collector plate. The sample was transferred in a glass tube and evaporated at 40°C under a gentle stream of nitrogen in a Pierce (Rockford, United States) Reacti-Therm III™ Heating Module and Reacti-Vap™ III Module. The dried sample extract was reconstituted in 500 µL Milli-Q water, followed by injection of a 5 µL sample aliquot onto the UPLC-MS/MS apparatus. Quantification was based on the ratio of the analyte peak area compared to the peak area of the internal standard berberine-d6.
Calibration standards and quality control samples were prepared as follows: 137.5 µL of blank plasma stabilized with 17 mg/mL L-ascorbic acid were supplemented with 25 µL mixed working solutions of berberine and metabolites (except dihydroberberine) at different levels, 25 µL of dihydroberberine working solution, stabilized with 17 mg/mL L-ascorbic acid, at different levels and 25 µL of an internal standard solution containing 100 ng/mL of both berberine-d6 and tetrahydropalmatine. The calibration curve was in the 0.1–100 ng/mL range, including 0.1, 0.5, 1, 2.5, 5, 10, 25, […], 50 and 100 ng/mL levels.
The UPLC-MS/MS analysis method for the quantification of berberine and berberine-derived metabolites both in plasma and ileal/caecal intestinal content was validated to the guidelines of the European Medicines Agency, i.e., of the Committee for Veterinary Medicinal Products (EMEA/CVMP/VICH/463202/2009) and of the Committee for Medicinal Products for Human Use (EMEA/CHMP/EWP/192217/20), and in accordance with the EU Directive 2002/657/EC. […]

[2] = UPLC-MS/MS quantification of berberine and metabolites in ileal and caecal content; assay type: in vivo, Ross 308 broiler chickens; settings: 21 days
Description: as §1, §2
250 mg of ileal or caecal content was weighed in a 15 mL polypropylene centrifuge tube and 250 µL of ascorbic acid 170 mg/mL solution was added for stabilization of dihydroberberine, followed by brief vortexing. Subsequently, 25 µL of an internal standard solution containing 250 μg/mL of berberine-d6 and 2.5 μg/mL tetrahydropalmatine were added, followed by brief vortexing. A 2.5 mL volume of extraction solvent was then added, consisting of a 1% (v/v) formic acid solution in methanol. The sample was put on a rotary shaker set at 80 rpm for 20 min, followed by centrifugation (3,720 g, 10 min, 4°C). The supernatant was then diluted, by a factor 5 for measurement of low abundance components, and by a factor 2,000 for measurement of high abundance components. The 1/5 diluted sample extract was prepared directly in an autosampler vial as follows: 200 µL sample extract were mixed with 100 µL ascorbic acid 170 mg/mL solution and 700 µL Milli-Q water. For the 1/2,000 diluted sample extract, an intermediate 1/100 sample dilution was prepared by combining 500 µL sample extract and 49.5 mL of Milli-Q water. 50 μL was then transferred in an autosampler vial followed by the addition of 950 µL of Milli-Q water. For both dilutions, a 5 µL sample aliquot was injected onto the UPLC-MS/MS apparatus. Quantification was based on the ratio of the analyte peak area compared to the peak area of the internal standard tetrahydropalmatine for 1/5 diluted sample extracts, and on the ratio of the analyte peak area compared to the peak area of the internal standard berberine-d6 for 1/2,000 diluted sample extracts.
Calibration standards and quality control samples were prepared as follows: 250 mg of blank ileal or caecal content were supplemented with 250 µL of ascorbic acid 170 mg/mL solution, 25 µL mixed solution of berberine and metabolites (with the exception of dihydroberberine) at different levels, 25 µL of dihydroberberine solution, stabilized with 17 mg/mL ascorbic acid, at different levels and 25 µL of an internal standard solution containing 0.625 μg/mL of berberine-d6 and 2.5 μg/mL tetrahydropalmatine. The calibration curve was in the 62.5–5,000 ng/g range, and included 62.5, 125, 250, 500, 1,000, 2,500, and 5,000 ng/g levels. […]

[3] = tested on: Anaerostipes butyraticus (35–7); settings: 35-7, chicken, 10 µg/mL, pH 6
Procedure: (§3) Six strains were tested for their ability to convert berberine into berberine-demethylated metabolites. […] Strains were sub-cultured overnight in M2GSC medium pH 6. The next day, caecal content from a 3-week-old broiler chicken was sampled in anaerobic conditions and 1:1,000 diluted in M2GSC medium pH 6 containing 10 μg/mL berberine. Caecal mixtures were enriched with 1:100 diluted overnight cultures of single bacteria, or with M2GSC (control), and incubated in a 24-well plate, for 48 h. […] Samples were collected and processed as described before. Each bacterial strain was tested in triplicate at 37°C–40°C under anaerobic conditions.
(§4) The UPLC instrument consisted of an Acquity H-Class Quaternary Solvent Manager and an Acquity FTN Sample Manager (Waters, Berchem, Belgium). For chromatographic separation, an Acquity UPLC® HSS T3 column (1.8 µm, 100 mm × 2.1 mm i.d.) was used, protected by a precolumn of the same type (VanGuardTM, 5 mm × 2.1 mm i.d.), both from Waters. […] The column temperature was maintained at 25°C. The autosampler temperature was set at 10°C. The UPLC effluent was sent from 1.2 min to 9.5 min by use of a divert valve to a Xevo TQ-S® triple quadrupole mass spectrometer from Water, equipped with an ESI ion source operating in the positive ionization mode from. The UPLC-MS/MS analysis was run under control of MassLynx software (v4.1), which was used for subsequent data processing as well. For the injection of 1/5 diluted intestinal content samples (see section Preparation of intestinal content samples (ileum and caecum)), the divert valve was used in addition from 7.1 min to 8.4 min to deviate the high amount of berberine and associated IS berberine-d6 eluting in that time window from the UPLC column directly to the waste, rather than to the MS detector to avoid oversaturation of the instrument, influencing subsequent sample extract injections at well. Operating conditions for the ESI source used in the positive ionization mode were optimized by direct infusion of all individual components in combination with the mobile phase at 50% A/50% B delivered at a flow rate of 0.3 mL/min. The following tune parameters were used for detection of all components: capillary voltage, 3 kV, cone voltage, 10 V, source offset, 50 V, source temperature, 150°C, desolvation temperature, 500°C, desolvation gas flow, 800 L/h, cone gas flow, 150 L/h, collision gas flow, 0.2 mL/min, ion energy 1 and 2, 0.5, LM 1 and LM 2 resolution, 3, HM 1 and HM 2 resolution, 15. Components were detected in MS/MS mode using component specific MRM (Multiple Reaction Monitoring) transitions (Supplementary Table S1). Since a commercial standard of thalifendine was not available, MS/MS detection parameters and calibration of berberrubine were used for the detection and quantification of thalifendine, which is a reasonable approach, since both compounds are isomers. No commercial reference standards were available for phase II metabolites, therefore “calculated” MRM transitions were defined as follows: [M + -Gluc] > M+ for glucuronide forms and [M + -SO3] > M+ for sulfate forms, where the loss of glucuronic acid or sulfate corresponded to a mass shift of 176 Da or 80 Da respectively. Phase II metabolites were quantified relatively using the berberine calibration curve ([Wang et al., 2017a]; [Kwon et al., 2020]).

B. coccoides (DSM 935) [4] = settings: DSM 935, chicken, 10 µg/mL, pH 6
Procedure: as §3, §4

[5] = tested on: Blautia hansenii (DSM 20583); settings: DSM 20583, chicken, 10 µg/mL, pH 6
Procedure: as §3, §4

[6] = tested on: Blautia hydrogenotrophica (DSM 10507); settings: DSM 10507, chicken, 10 µg/mL, pH 6
Procedure: as §3, §4

Blautia luti (DSM 14534) = settings: DSM 14534, chicken, 10 µg/mL, pH 6
Procedure: as §3, §4

[7] = tested on: Eubacterium limosum (LMG 28910); settings: LMG 28910, chicken, 10 µg/mL, pH 6
Procedure: as §3, §4

B. coccoides (DSM 935) [8] = settings: Blautia coccoides, 10 µg/mL, pH 6
[9] = rats, oral administration of berberine; cited from earlier work
Caco-2 monolayers = tested on: Caco-2 monolayers; design: method as in Zhang et al., 2019; settings: in vitro, among berberine metabolites; ref Zhang et al., 2019; cited from earlier work

Row | SMILES | Detection in plasma [1] | Ratio caecum / ileum (concentration) ([2]; 0.1 g berberine/kg feed) | Ratio caecum / ileum (concentration) ([2]; 0.5 g berberine/kg feed) | Ratio caecum / ileum (concentration) ([2]; 1 g berberine/kg feed) | Log2(fold change) of metabolite response at 48 h, culture with bacteria over control (berberine-medium + microbiota) [3] | Log2(fold change) of metabolite response at 48 h, culture with bacteria over control (berberine-medium + microbiota) (B. coccoides (DSM 935) [4]) | Log2(fold change) of metabolite response at 48 h, culture with bacteria over control (berberine-medium + microbiota) [5] | Log2(fold change) of metabolite response at 48 h, culture with bacteria over control (berberine-medium + microbiota) [6] | Log2(fold change) of metabolite response at 48 h, culture with bacteria over control (berberine-medium + microbiota) (Blautia luti (DSM 14534)) | Log2(fold change) of metabolite response at 48 h, culture with bacteria over control (berberine-medium + microbiota) [7] | Log2(fold change) of metabolite response at 48 h, B. coccoides pure culture over berberine-medium (B. coccoides (DSM 935) [8]) | Amount quantified in feces [9] [%] | Permeability across Caco-2 monolayers (Caco-2 monolayers)
1 | COc1cc2c(cc1O)-c1cc3ccc(OC)c(OC)c3c[n+]1CC2 [Columbamine, columbamine] | below LOQ | 0.27 | 0.32 | 0.44 |  |  |  |  |  |  |  |  | 
2 | COc1ccc2cc3[n+](cc2c1OC)CCc1cc(O)c(O)cc1-3 [Demethyleneberberine] |  | 15.66 | 30.48 | 32.10 | 0.15 | 1.07 | -0.02 | -3.33e-003 | 1.34 | 0.21 | 1.71 | 1.49 | most permeable
3 | COc1c(O)ccc2cc3[n+](cc12)CCc1cc2c(cc1-3)OCO2 [Thalifendine] |  | 6.68 | 29.03 | 21.17 | 0.21 | 4.46 | 0.34 | 0.26 | -1.30 | 1.37 | 9.30 |  | most permeable
4 | COc1cc2c(cc1OS(=O)(=O)[O-])-c1cc3ccc(OC)c(OC)c3c[n+]1CC2 [columbamine-sulfate] | not detected |  |  |  |  |  |  |  |  |  |  |  | 

Source: article PMC10733463, “Berberine-microbiota interplay: orchestrating gut health through modulation of the gut microbiota and metabolic transformation into bioactive metabolites” (Frontiers in Pharmacology, 2023)
